Here are results for eight compounds from US20090105225A1, “2-Substituted 4-Benzylphthalazinone Derivatives as Histamine H1 and H3 Antagonists” (GLAXO GROUP LIMITED, priority 2006, published 2009).

Structures can show the parent of a compound that is named as a salt.

A short description of data set [1]: CNS penetration (intravenous bolus or steady-state infusion, brain and blood concentration). Format: in vivo, rat. Particulars: compared with azelastine. As to the method:
Compounds are dosed intravenously at a nominal dose level of 1 mg/kg to male CD Sprague Dawley rats. Compounds are formulated in 5% DMSO/45% PEG200/50% water. Blood samples are taken under terminal anaesthesia with isoflurane at 5 min post-dose and the brains are also removed for assessment of brain penetration. Blood samples are taken directly into heparinised tubes. Blood samples are prepared for analysis using protein precipitation and brain samples are prepared using extraction of drug from brain by homogenisation and subsequent protein precipitation. The concentration of parent drug in blood and brain extracts is determined by quantitative LC-MS/MS analysis using compound-specific mass transitions.
A loading dose of the compounds is given to male CD Sprague Dawley rats at a nominal dose level of 0.4 mg/kg. The compounds are then infused intravenously for 4 h at a nominal dose level of 0.1 mg/kg/h. Compounds are formulated in 2% DMSO/30% PEG200/68% water. Serial or terminal blood samples are taken at 0.5, 1.5, 2.5, 3, 3.5 and 4 h post dose. The final blood sample is collected under terminal anaesthesia with isoflurane and the brains are also removed for assessment of brain penetration. Blood samples are taken directly into heparinised tubes. Blood samples are prepared for analysis using protein precipitation and brain samples are prepared using extraction of drug from brain by homogenisation and subsequent protein precipitation. The concentration of parent drug in blood and brain extracts is determined by quantitative LC-MS/MS analysis using compound-specific mass transitions.

Data set [2] concerns the target T1, human H1 receptor (Homo sapiens, UniProt P35367).
T1 construct: expressed in transfected cells
Briefly: Histamine H1 functional antagonist assay (FLIPR): determination of antagonist pA2 and duration. It is filed as cell-based. Particulars: at one or more time points; compared with azelastine. As for the experimental part:
The human H1 receptor is cloned using known procedures described in the literature [Biochem. Biophys. Res. Commun., 201(2):894 (1994)]. Chinese hamster ovary (CHO) cells stably expressing the human H1 receptor are generated according to known procedures described in the literature [Br. J. Pharmacol., 117(6):1071 (1996)].
The histamine H1 receptor expressing CHO cells are seeded into non-coated black-walled clear bottom 96-well tissue culture plates as described above.
Following overnight culture, growth medium is removed from each well, washed with 200 μl phosphate buffered saline (PBS) and is replaced with 50 μl loading dye (250 μM Brilliant Black, 1 μM Fluo-4 diluted in Tyrodes buffer+probenecid (145 mM NaCl, 2.5 mM KCl, 10 mM HEPES, 10 mM D-glucose, 1.2 mM MgCl2, 1.5 mM CaCl2, 2.5 mM probenecid, pH adjusted to 7.40 with NaOH 1.0 M)). Cells are incubated for 45 min at 37° C. The loading buffer is removed and the cells are washed as above, and 90 μl of Tyrodes buffer+probenecid is added to each well. 10 μl of test compound, diluted to the required concentration in Tyrodes buffer+probenecid (or 10 μl Tyrodes buffer+probenecid as a control) is added to each well and the plate is incubated for 30 min at 37° C., 5% CO2.
The plates are then placed into a FLIPR™ (Molecular Devices, UK) to monitor cell fluorescence (λex=488 nm, λEM=540 nm) in the manner described in Sullivan et al., (In: Lambert D G (ed.), Calcium Signaling Protocols, New Jersey: Humana Press, 1999, 125-136) before and after the addition of 50 μl histamine over a concentration range of 1 mM-0.1 nM. The resultant concentration response curves are analysed by non-linear regression using a standard four parameter logistic equation to determine the histamine EC50, the concentration of histamine required to produce a response of 50% of the maximum response to histamine. The antagonist pA2 is calculated using the following standard equation: pA2=log(DR−1)−log [B] where DR=dose ratio, defined as EC50 antagonist-treated/EC50 control and [B]=concentration of antagonist.
To determine the antagonist duration, cells are cultured overnight in non-coated black-walled clear bottom 96-well tissue culture plates, are washed with PBS and are incubated with a concentration of antagonist chosen to give an approximate DR in the range 30-300. Following the 30 min antagonist incubation period, the cells are washed two or three times with 200 μl of PBS and then 100 μl Tyrodes buffer is added to each well to initiate antagonist dissociation. Following incubation for predetermined times, typically 30-270 min at 37° C., the cells are then washed again with 200 μl PBS and are incubated with 100 μl Tyrodes buffer containing Brilliant Black, probenecid and Fluo-4 for 45 min at 37° C., as described above. After this period, the cells are challenged with histamine in the FLIPR™ as described above. The dose ratio at each time point is used to determine the fractional H1 receptor occupancy by the following equation: fractional receptor occupancy=(DR-1)/DR. The decrease in receptor occupancy over time approximates to a straight line and is analysed by linear regression. The slope of this straight line fit is used as an index of the dissociation rate of the antagonist. The dose ratios for antagonist treated cells and for antagonist treated and washed cells at each time point are used to calculate a relative dose ratio (rel DR) which is also used as an index of antagonist duration. Antagonists with long duration of action produce rel DR values close to 1, and antagonists with short duration of action produce rel DR values that approaches the dose ratio value obtained for antagonist treatment alone.

The subject of data set [3] is histamine-induced congestion. Put plainly: Intranasal histamine challenge, whole body plethysmography. Particulars: 24 hours after dosing; compared to azelastine; Guinea Pig whole body plethysmography model (FIG. 3). Format: in vivo. As for the experimental part: Female Dunkin-Hartley guinea pigs 150-250 g are sensitised twice daily for 5 days (week 1) with ovalbumin (OVA) and aluminium hydroxide (Al(OH)3 or Alum) in physiological saline, 25 μl/nostril. Solution is made up at 20 μg/ml OVA, 180 mg/ml Alum. During weeks 2 and 3, animals receive 25 μl/nostril of OVA (5 mg/ml) once daily. During Week 4 guinea pigs will be entered into study but are continually sensitized as per weeks 2 and 3 until the day before dosing with compound or vehicle.
Pretreatment with test compound is performed at various times prior to histamine challenge. Efficacy dose-response curves are determined 1 h after dosing whereas duration of action is studied up to 7 days post dose. Test compounds are formulated as solutions in 0.9% sterile saline or suspensions in 0.9% sterile saline/tween80. […]
After the stipulated pre-dose time has been reached, guinea pigs are re-anaesthetised with isoflurane and dosed with either 15 mM histamine or phosphate-buffered saline (PBS), (25 μl per nostril). […] Data are analysed using ANOVA with post-hoc Fishers LSD test (general linear models, Statistica®) and finally Hochberg adjustment. Inhibition of histamine-induced congestion is determined by statistically significant differences between the mean responses of compound pre-treated groups compared to the vehicle pre-treated, histamine-challenged group.

T1 sequence (P35367 whole entry): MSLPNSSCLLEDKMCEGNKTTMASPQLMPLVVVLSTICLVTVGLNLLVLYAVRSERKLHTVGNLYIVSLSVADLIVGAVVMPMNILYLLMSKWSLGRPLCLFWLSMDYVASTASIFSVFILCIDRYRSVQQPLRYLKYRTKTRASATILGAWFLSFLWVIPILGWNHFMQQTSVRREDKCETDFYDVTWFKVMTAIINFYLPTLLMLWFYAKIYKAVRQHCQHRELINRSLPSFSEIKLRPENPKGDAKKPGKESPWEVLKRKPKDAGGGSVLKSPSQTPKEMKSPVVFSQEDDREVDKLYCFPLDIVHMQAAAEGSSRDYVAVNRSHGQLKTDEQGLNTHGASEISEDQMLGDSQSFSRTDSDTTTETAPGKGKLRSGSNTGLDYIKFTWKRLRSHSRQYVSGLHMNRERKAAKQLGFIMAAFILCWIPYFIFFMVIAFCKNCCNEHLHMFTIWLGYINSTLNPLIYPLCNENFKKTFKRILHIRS

Turning to `O=c1c2ccccc2c(Cc2ccc(Cl)cc2)nn1C1CCCN(CCCOc2ccc3c(c2)CCN(C2CCC2)CC3)CC1` (centres unmarked) [Example 16, 4-[(4-Chlorophenyl)methyl]-2-(1-{3-[(3-cyclobutyl-2,3,4,5-tetrahydro-1H-3-benzazepin-7-yl)oxy]propyl}hexahydro-1H-azepin-4-yl)-1(2H)-phthalazinone Formate Salt], in data set [1], the CNS penetration entry was “comparable CNS penetration to azelastine”.
Take `O=c1c2ccccc2c(Cc2ccc(O)cc2)nn1C[C@H]1CCCN1CCCCc1ccc(OCCCN2CCCCCC2)cc1` [Example 8, 2-({(2R)-1-[4-(4-{[3-(Hexahydro-1H-azepin-1-yl)propyl]oxy}phenyl)butyl]-2-pyrrolidinyl}methyl)-4-[(4-hydroxyphenyl)methyl]-1(2H)-phthalazinone]: the “duration of action in the histamine H1 functional antagonist assay” value (from here on “duration of action”) in data set [2] was “longer duration of action than azelastine”.
As for `O=c1c2ccncc2c(Cc2ccc(Cl)cc2)nn1C[C@H]1CCCN1CCCCc1ccc(OCCCN2CCCCCC2)cc1` [Example 23], the “duration of action” value in data set [2] is “longer duration of action than azelastine”.
`O=C(NCCN1CCCC(n2nc(Cc3ccc(Cl)cc3)c3ccccc3c2=O)CC1)c1ccc2c(c1)CCN(C1CCC1)CC2` (centres unmarked) [Example 18, N-(2-{4-[4-[(4-Chlorophenyl)methyl]-1-oxo-2(1H)-phthalazinyl]hexahydro-1H-azepin-1-yl}ethyl)-3-cyclobutyl-2,3,4,5-tetrahydro-1H-3-benzazepine-7-carboxamide Diformate Salt]: the “duration of action” value in data set [2] is on record as “longer duration of action than azelastine”.
As for `COc1ccc(Cc2nn(C[C@H]3CCCN3CCCCc3ccc(OCCCN4CCCCCC4)cc3)c(=O)c3ccccc23)cc1` [Example 7, 2-({(2R)-1-[4-(4-{[3-(Hexahydro-1H-azepin-1-yl)propyl]oxy}phenyl)butyl]-2-pyrrolidinyl}methyl)-4-{[4-(methyloxy)phenyl]methyl}-1(2H)-phthalazinone Diformate], the CNS penetration entry in data set [1] is “lower CNS penetration than azelastine”. Further, the “duration of action” value in data set [2] is reported as “longer duration of action than azelastine”.
`O=c1c2ccccc2c(Cc2ccc(Cl)cc2)nn1C[C@H]1CCCN1CCCOc1ccc2c(c1)CCN(C1CCC1)CC2` [Example 15, 4-[(4-Chlorophenyl)methyl]-2-[((2R)-1-{3-[(3-cyclobutyl-2,3,4,5-tetrahydro-1H-3-benzazepin-7-yl)oxy]propyl}-2-pyrrolidinyl)methyl]-1(2H)-phthalazinone]: in data set [2], the “duration of action” value is recorded as “longer duration of action than azelastine”.
Turning to `O=c1c2ccccc2c(Cc2ccc(Cl)cc2)nn1C[C@H]1CCCN1CCCCc1ccc(OCCCN2CCCCCC2)cc1` [Example 24, 4-[(4-Chlorophenyl)methyl]-2-({(2R)-1-[4-(4-{[3-(hexahydro-1H-azepin-1-yl)propyl]oxy}phenyl)butyl]-2-pyrrolidinyl}methyl)-1(2H)-phthalazinone Free Base], the CNS penetration entry in data set [1] is on record as “lower CNS penetration than azelastine”. Moreover, the “duration of action” value in data set [2] was “significantly longer duration of action than azelastine”. Further, in data set [3], the “inhibition of nasal congestion” value is recorded as “statistically significant inhibition of nasal congestion”.
For `O=c1c2ccccc2c(Cc2ccc(F)cc2)nn1C[C@H]1CCCN1CCCCc1ccc(OCCCN2CCCCCC2)cc1` [Example 9, 4-[(4-Fluorophenyl)methyl]-2-({(2R)-1-[4-(4-{[3-(hexahydro-1H-azepin-1-yl)propyl]oxy}phenyl)butyl]-2-pyrrolidinyl}methyl)-1(2H)-phthalazinone], the “duration of action” value in data set [2] is “longer duration of action than azelastine”.
